How the values were obtained:
Experiment in all cases: KINOMEscan
Type in all cases: binding
Conditions in all cases: read-out: % control activity remaining
CIT = target: T1, CIT (Homo sapiens, UniProt O14578)
T1 construct: purchased Eurofins DiscoverX KINOMEscan

CSK = target: T2, CSK (Homo sapiens, UniProt P41240)
T2 construct: purchased Eurofins DiscoverX KINOMEscan

CSNK1E = target: T3, CSNK1E (Homo sapiens, UniProt P49674)
T3 construct: purchased Eurofins DiscoverX KINOMEscan

ERN1 = target: T4, ERN1 (Homo sapiens, UniProt O75460)
T4 construct: purchased Eurofins DiscoverX KINOMEscan

FLT1 = target: T5, FLT1 (Homo sapiens, UniProt P17948)
T5 construct: purchased Eurofins DiscoverX KINOMEscan

IKK-beta = target: T6, IKK-beta (Homo sapiens, UniProt O14920)
T6 construct: purchased Eurofins DiscoverX KINOMEscan
T6 sequence (O14920 1-756): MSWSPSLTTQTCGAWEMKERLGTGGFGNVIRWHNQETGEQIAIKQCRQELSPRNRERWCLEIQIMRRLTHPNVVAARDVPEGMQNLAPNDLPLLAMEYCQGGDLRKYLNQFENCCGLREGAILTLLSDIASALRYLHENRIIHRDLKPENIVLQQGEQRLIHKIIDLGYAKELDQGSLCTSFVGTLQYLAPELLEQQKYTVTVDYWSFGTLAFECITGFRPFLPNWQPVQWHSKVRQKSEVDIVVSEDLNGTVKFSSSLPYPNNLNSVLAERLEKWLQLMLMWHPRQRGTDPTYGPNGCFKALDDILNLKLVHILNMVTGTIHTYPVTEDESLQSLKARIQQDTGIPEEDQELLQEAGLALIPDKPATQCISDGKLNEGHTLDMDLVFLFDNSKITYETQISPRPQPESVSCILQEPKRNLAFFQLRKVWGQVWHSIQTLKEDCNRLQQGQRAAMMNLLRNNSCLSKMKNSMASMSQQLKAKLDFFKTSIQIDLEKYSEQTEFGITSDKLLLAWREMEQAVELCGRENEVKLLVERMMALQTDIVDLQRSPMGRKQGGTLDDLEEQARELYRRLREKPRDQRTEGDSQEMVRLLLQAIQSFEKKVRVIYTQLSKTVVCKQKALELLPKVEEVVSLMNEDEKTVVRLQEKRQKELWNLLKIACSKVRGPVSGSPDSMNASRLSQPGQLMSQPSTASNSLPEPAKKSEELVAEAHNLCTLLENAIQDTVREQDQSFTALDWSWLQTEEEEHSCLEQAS

MAP3K2 = target: T7, MAP3K2 (Homo sapiens, UniProt Q9Y2U5)
T7 construct: purchased Eurofins DiscoverX KINOMEscan
T7 sequence (Q9Y2U5 1-619): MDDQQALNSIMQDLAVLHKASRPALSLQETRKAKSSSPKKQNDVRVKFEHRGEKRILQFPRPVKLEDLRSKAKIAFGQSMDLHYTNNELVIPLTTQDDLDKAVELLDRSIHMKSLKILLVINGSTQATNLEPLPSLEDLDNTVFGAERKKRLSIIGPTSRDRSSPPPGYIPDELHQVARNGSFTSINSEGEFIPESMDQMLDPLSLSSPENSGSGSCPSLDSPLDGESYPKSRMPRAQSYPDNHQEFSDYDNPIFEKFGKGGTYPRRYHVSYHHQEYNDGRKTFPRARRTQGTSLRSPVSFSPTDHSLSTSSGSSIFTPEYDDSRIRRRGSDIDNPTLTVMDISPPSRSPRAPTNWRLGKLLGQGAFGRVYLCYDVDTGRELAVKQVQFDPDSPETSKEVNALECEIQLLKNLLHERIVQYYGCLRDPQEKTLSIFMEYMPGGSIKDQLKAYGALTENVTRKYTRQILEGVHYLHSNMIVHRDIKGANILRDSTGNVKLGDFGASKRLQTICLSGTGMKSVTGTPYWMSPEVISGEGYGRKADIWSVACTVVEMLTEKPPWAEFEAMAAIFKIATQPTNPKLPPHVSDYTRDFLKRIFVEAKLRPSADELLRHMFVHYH

MET(M1250T) = target: T8, MET(M1250T) (Homo sapiens, UniProt P08581, M1250T)
T8 construct: purchased Eurofins DiscoverX KINOMEscan

TGFBR1 = target: T9, TGFBR1 (Homo sapiens, UniProt P36897)
T9 construct: purchased Eurofins DiscoverX KINOMEscan
T9 sequence (P36897 34-503): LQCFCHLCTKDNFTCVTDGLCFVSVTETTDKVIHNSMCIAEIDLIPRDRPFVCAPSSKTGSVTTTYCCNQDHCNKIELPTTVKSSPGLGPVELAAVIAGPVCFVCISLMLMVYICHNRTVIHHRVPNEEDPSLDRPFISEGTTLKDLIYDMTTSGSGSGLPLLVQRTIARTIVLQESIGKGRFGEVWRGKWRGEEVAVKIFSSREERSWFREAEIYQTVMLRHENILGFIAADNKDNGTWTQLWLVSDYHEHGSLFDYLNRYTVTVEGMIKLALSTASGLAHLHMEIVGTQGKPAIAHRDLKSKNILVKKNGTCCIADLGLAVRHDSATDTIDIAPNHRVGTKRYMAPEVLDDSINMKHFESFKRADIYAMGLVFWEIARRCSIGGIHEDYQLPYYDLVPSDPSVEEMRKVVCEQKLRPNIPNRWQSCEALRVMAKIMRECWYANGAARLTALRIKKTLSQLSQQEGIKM

YANK3 = target: T10, YANK3 (Homo sapiens, UniProt Q86UX6)
T10 construct: purchased Eurofins DiscoverX KINOMEscan
T10 sequence (Q86UX6 whole entry): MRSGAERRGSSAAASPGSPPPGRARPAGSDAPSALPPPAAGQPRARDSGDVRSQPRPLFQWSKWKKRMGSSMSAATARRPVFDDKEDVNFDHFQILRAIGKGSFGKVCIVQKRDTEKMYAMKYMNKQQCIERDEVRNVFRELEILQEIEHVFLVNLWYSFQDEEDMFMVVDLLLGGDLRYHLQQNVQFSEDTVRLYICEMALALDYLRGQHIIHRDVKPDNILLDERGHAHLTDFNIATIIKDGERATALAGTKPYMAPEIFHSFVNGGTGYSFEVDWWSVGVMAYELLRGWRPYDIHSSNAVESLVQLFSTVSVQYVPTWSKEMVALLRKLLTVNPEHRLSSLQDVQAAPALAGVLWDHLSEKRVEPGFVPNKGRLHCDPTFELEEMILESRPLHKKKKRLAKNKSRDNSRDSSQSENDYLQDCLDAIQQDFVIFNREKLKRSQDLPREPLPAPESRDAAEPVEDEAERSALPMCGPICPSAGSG

T4 sequence (O75460 19-977): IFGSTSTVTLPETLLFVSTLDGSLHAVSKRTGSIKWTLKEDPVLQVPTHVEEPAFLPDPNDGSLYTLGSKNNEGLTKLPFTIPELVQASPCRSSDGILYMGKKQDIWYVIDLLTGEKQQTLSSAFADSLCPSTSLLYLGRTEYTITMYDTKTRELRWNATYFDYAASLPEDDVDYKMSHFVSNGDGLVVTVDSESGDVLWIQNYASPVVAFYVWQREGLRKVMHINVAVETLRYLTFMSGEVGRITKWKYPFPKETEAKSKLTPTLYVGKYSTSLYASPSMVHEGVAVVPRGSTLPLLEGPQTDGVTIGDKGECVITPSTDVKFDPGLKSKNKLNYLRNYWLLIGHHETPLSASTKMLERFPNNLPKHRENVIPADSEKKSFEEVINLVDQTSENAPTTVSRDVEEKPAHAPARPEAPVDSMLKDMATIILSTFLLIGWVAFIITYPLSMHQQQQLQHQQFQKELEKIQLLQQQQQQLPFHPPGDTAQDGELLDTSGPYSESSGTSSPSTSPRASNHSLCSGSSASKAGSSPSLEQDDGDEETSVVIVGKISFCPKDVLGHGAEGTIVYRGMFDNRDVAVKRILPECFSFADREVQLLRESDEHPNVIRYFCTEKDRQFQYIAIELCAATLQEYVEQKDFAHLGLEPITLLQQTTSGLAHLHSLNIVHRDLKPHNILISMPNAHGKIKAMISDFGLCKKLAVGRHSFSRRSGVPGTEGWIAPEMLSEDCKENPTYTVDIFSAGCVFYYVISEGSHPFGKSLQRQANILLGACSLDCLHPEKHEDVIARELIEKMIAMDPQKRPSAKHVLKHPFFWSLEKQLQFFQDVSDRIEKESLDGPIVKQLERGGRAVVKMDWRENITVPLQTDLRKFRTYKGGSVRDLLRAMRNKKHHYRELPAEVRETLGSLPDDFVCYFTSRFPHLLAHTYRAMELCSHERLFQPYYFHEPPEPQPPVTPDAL
T3 sequence (P49674 whole entry): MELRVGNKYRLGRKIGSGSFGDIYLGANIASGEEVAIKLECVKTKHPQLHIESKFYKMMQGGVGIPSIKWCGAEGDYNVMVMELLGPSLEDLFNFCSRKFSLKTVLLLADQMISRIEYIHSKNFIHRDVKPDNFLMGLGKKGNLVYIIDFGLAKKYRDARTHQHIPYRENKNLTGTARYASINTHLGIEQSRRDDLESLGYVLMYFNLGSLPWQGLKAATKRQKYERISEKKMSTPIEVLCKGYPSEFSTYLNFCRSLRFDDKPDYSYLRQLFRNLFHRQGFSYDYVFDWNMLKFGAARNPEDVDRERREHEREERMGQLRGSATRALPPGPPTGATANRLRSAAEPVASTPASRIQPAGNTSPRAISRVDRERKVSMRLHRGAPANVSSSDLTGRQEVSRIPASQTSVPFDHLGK
T2 sequence (P41240 whole entry): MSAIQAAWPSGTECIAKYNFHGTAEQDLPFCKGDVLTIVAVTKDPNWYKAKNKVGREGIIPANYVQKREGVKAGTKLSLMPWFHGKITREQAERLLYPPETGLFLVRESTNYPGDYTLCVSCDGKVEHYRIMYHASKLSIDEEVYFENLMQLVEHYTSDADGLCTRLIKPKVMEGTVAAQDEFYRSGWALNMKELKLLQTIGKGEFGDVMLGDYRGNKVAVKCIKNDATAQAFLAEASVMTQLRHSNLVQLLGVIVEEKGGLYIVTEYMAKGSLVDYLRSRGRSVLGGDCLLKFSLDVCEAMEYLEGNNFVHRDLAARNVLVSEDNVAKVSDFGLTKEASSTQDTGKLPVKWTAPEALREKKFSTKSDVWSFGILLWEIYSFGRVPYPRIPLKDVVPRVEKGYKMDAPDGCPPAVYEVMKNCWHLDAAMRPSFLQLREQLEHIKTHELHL
T1 sequence (O14578 whole entry): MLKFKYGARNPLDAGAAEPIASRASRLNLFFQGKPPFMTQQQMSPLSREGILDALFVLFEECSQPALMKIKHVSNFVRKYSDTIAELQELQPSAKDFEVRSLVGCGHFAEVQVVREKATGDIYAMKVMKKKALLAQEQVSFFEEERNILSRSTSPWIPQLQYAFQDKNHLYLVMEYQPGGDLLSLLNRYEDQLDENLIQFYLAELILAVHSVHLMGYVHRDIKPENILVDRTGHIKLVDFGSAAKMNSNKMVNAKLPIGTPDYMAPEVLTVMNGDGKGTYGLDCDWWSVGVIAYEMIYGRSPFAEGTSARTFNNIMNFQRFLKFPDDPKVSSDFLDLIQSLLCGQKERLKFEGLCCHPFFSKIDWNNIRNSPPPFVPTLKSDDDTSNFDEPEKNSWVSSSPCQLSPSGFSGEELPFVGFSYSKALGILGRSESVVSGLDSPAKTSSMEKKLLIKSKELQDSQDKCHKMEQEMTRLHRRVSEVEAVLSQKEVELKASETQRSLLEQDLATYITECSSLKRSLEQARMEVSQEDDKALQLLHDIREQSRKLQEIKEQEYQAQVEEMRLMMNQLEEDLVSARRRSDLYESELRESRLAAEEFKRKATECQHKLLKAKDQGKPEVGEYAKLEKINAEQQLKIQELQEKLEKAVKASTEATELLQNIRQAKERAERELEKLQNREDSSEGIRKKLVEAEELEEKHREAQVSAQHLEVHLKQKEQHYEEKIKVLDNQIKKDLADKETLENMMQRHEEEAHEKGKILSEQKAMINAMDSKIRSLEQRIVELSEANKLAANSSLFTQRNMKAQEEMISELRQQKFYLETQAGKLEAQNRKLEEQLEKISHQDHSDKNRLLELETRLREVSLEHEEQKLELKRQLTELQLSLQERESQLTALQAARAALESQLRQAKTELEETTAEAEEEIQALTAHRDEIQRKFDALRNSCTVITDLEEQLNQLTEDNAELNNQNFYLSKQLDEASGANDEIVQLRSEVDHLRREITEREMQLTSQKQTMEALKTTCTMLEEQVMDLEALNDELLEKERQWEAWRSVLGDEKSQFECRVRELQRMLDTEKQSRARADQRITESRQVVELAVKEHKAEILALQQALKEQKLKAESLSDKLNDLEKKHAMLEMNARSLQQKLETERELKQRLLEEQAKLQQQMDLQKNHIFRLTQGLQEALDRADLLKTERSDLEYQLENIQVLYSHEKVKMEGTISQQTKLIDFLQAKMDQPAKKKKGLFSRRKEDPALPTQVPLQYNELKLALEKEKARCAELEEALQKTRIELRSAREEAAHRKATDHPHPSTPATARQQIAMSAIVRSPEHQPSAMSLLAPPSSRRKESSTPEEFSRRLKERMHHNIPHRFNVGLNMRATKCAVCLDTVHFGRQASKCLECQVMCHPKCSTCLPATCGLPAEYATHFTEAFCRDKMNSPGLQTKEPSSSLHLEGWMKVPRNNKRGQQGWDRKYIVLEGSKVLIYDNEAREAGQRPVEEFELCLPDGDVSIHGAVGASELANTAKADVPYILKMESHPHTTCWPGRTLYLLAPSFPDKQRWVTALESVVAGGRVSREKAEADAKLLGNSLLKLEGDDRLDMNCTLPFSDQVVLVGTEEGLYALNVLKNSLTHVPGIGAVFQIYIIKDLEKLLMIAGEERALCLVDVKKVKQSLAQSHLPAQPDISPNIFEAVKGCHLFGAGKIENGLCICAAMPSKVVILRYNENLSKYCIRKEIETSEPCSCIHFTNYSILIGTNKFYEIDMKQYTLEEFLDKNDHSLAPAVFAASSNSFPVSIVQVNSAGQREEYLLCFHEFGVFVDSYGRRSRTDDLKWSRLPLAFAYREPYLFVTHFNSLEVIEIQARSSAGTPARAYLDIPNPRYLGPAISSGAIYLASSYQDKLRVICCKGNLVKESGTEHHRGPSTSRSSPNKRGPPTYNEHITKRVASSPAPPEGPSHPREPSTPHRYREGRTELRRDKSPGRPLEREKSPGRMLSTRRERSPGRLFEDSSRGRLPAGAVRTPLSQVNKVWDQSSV

Row | SMILES | remaining binding at 1 µM (CIT) | remaining binding at 1 µM (CSK) | remaining binding at 1 µM (CSNK1E) | remaining binding at 1 µM (ERN1) | remaining binding at 1 µM (FLT1) | remaining binding at 1 µM (IKK-beta) | remaining binding at 1 µM (MAP3K2) | remaining binding at 1 µM (MET(M1250T)) | remaining binding at 1 µM (TGFBR1) | remaining binding at 1 µM (YANK3)
1 | Clc1cc(NCC2CC2)c2ncc(-c3ccc4[nH]ncc4c3)n2n1 [compound 2, 6-Chloro-N-(cyclopropylmethyl)-3-(1H-indazol-5-yl)imidazo[1,2-b]pyridazin-8-amine] | 73% | 100% | 71% | 69% | 90% | 83% | 74% | 89% | 100% | 100%
2 | O=C(CN1CCOCC1)N[C@H]1CC[C@H](Nc2cc(Cl)nn3c(-c4ccc5[nH]ncc5c4)cnc23)CC1 [compound 26] | 74% | 94% | 44% | 41% | 11% | 94% | 100% | 82% | 100% | 99%
3 | CN1CCC(CNc2cc(Cl)nn3c(-c4cc5nc(Nc6ccccc6)[nH]c5cc4F)cnc23)CC1 [compound 31, 6-Chloro-3-(6-fluoro-2-(phenylamino)-1H-benzo[d]imidazol-5-yl)-N-((1-methylpiperidin-4-yl)methyl)imidazo[1,2-b]pyridazin-8-amine] | 85% | 98% | 100% | 33% | 45% | 90% | 62% | 98% | 92% | 73%

Source: PMC6437697 (Journal of Medicinal Chemistry, 2019)
